Experimental data taken from EP2488183B1, “Composition for inhibiting TGF-beta comprising imidazopurine derivatives” (Korea Institute of Radiological & Medical Sciences, priority 2009, dated 2011).

Legend:
U87-MG = test: Apoptosis of brain cancer cells alone or with doxorubicin, CCK-8 viability assay; format: cell-based; conditions: 48 h; for apoptosis effect together with doxorubicin: compound added 2 h before doxorubicin 0.05 µM; for apoptosis: compound alone at 5 µM or more, FIGS. 9b, 9d
Description: TGF-βis known to have contrasting effects related to a tumor. That is, at an initial stage, TGF-β suppresses tumor growth, but at a latter stage, promotes metastasis or infiltration of a tumor. Thus, apoptosis of tumor cell lines caused by compound I and II, and apoptosis of tumor cell lines caused by compound I or II in combination with doxorubicin, an anti-cancer agent, were measured. […] The tumor cells were treated with compound I or II at the concentrations shown in FIG. 9, and 2 hours later, doxorubicin was added thereto. Then, the cells were incubated for 48 hours under the conditions described above and then, quantified using a CCK-8 viability assay kit (Dojindo, Japan).

HEK 293 cells = test: Cytotoxicity test, CCK-8 assay; format: cell-based, human; conditions: CCK-8, absorbance 450 nm, FIGS. 4a, 4b
Description: In order to confirm that the luciferase activity is inhibited due to TGF-β inhibitor, rather than apoptosis, a CCK-8 survival rate assay kit (Dojindo, Japan) was used and an absorbance was measured at a wavelength of 450 nm by using a spectrophotometer (Labsystems, U.S.A.) to count the number of cells. The shown values are average values obtained from three independent experiments.

IMR-90 cells = test: Western blotting of fibrosis markers in irradiated lung fibrocytes; format: cell-based, human; conditions: IMR-90, 10 µM, 2 h before 4 Gy radiation, 48 h; FIG. 7c
Description: In order to identify whether compound I inhibits radiation-induced fibrosis, instead of external stimulation by TGF-β radiation that can internally engogenously increase TGF-β was employed to induce fibrosis. IMR-90 cells were incubated as described in (1) above and the IMR-90 cells were inoculated to a 6 cm plate containing a modified Eagle's medium (MEM) supplemented with 10% FBS serum, 100 units/ml of penicillin, and 100 µg/ml of streptomycin, 1 mM sodium pyruvate, and 0.1 mM non-essential amino acids. Then, compound I at a concentration of 10 µM was added thereto and the IMR-90 cells were incubated for 2 hours, and then, 4 Gy radiation was applied thereto. 48 hours later, the IMR-90 cells were collected. Then, fibrosis makers as described in Example 2 were identified from the IMR-90 cells by western blotting.

HSC-T6 cells = test: Western blotting of fibrosis markers in TGF-β-treated hepatic stellate cells; format: cell-based, human; conditions: HSC-T6, 0, 1, 5 and 10 µM added 2 h before TGF-β (5 ng/ml), 24 h; FIGS. 6a, 6b
Description: In addition, levels of α-smooth muscle actin (α-SMA) and extracellular matrix material fibronectin, which are typically used as a fibrosis molecular marker to identify fibrosis of hepatic stellate cells, were measured by western blotting. Two hours before the treatment with TGF-β(5 ng/ml), each of compounds I and II was added at a varying concentration (0, 1, 5 and 10 µM) to the HSC-T6 cells incubated under the conditions described above, and then, the HSC-T6 cells were incubated under 5% CO2, and at a temperature of 37°C. After 24-hour incubation, the HSC-T6 cells were dissolved in a RIPA buffer solution (50 mM Tris-Cl (pH7.4), 1% NP-40, 150 mM NaCl, 1 mM EDTA) including a protease inhibitor (1 mM PMSF, […] aprotinin, […] leupeptin, and 1 mM Na3VO4) to prepare cytoplasm fractions, and 4-12% gradient SDS-PAGE (Invitrogen) was performed on the cytoplasmic fractions to separate proteins. The proteins separated on the SDS-PAGE gel were transferred to a nitrocellulose membrane (BioRad, Hercules, CA, USA) and the membrane was blocked with 5% skim milk. Then, the membrane was treated with an anti-α-SMA antibody (Sigma, U.S.A.), an anti-fibronectin antibody (Santa Cruz, U.S.A.), and an anti-GAPDH antibody (Ab Frontier, Korea). […]

TGF-β = TGF-β inhibitor screening, 3TP-pGL2 luciferase reporter in transformed HEK 293 cells; format: cell-based, human; conditions: compound added 2 h before 0.5 ng/ml TGF-β, FIGS. 3a, 3b
Description: In order to screen an agent for inhibiting TGF-β cells stably transformed by luciferase-expressing plasmids were used to measure an effect on TGF-β activity.
A plasmid with a Smad binding site and a […] activator inhibitor (PAI) promoter, obtained from professor Carlos Arteaga at the University of Vanderbilt in US, was inserted into pGL2-Null reporter plasmid (Promega, U.S.A.). […] The plasmid was used to transform human embryonic kidney (HEK) 293 cells according to the manufacturer s specification, using Lipofectamine 2000 (Invitrogen, Calsbad, CA, USA), thereby constructing a system for screening an effect on TGF-β activity by measuring luciferase activity. The activity of luciferase was measured using a Dual Luciferase Assay kit (Promega, Medison, WI, USA). […]
The HEK 293 cells transformed were inoculated into a 96-well plate at 20,000 cells/ well in triplicates and then incubated under the condition as described above for 24 hours. Then, TGF-β was added thereto at concentrations of 0.5, 1, and 5 ng/ml and after 15-hour incubation, luciferase activity was measured. […]
By using the screening system as described above, a TGF-β inhibition effect was tested on 8,000 compounds in a compound library. […] Then, the luciferase activity was measured as described above. […]

Compound | apoptosis effect together with doxorubicin (U87-MG) | apoptosis (U87-MG) | cell count (cytotoxicity) (HEK 293 cells) | expressions of α-SMA and fibronectin (IMR-90 cells) | expression of α-SMA and fibronectin (fibrosis markers) (HSC-T6 cells) | TGF-β activity (luciferase activity) (TGF-β)
Cc1cn2c(nc3c2c(=O)n(Cc2ccccc2Cl)c(=O)n3C)[nH]1 [compound I, 3-(2-chlorobenzyl)-1,7-dimethyl-1H-imidazo[2,1-f]purine-2,4(3H,8H)-dion] | additive or synergistic apoptosis effects | did not occur | no significant decrease in the cell count | significantly reduced | concentration-dependently reduced | inhibit TGF-β activity in a concentration-dependent way
Cc1[nH]c2nc3c(c(=O)n(Cc4c(F)cccc4Cl)c(=O)n3C)n2c1C [compound II, 3-(2-chloro-6-fluorobenzyl)-1,6,7-trimethyl-1H-imidazo[2,1-f]purine-2,4(3H,8H)-dion] | additive or synergistic apoptosis effects | did not occur | no significant decrease in the cell count | – | significantly reduced fibrosis markers | inhibit TGF-β activity in a concentration-dependent way
